Data: ChEMBL document CHEMBL1201862, “PubChem BioAssay data set” (2004)
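In this assay, cells in 96-well plates receive the compound at five concentrations for 48 hours. Endpoints are linearly interpolated between the surrounding concentrations. GI50 marks 50% less growth.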 Active and inactive are the calls of the source. Rule as the data show it: active = GI50 up to about 1.1 µM and inactive = higher.

Assays:
Assay in all cases: NCI tumour cell line growth inhibition, 48 h
[1] = tested on: Malme-3M
[2] = tested on: SNB-19
[3] = tested on: HOP-62
[4] = tested on: EKVX
[5] = tested on: SF-268
[6] = tested on: SK-MEL-2
[7] = tested on: OVCAR-8
[8] = tested on: SK-OV-3
[9] = tested on: OVCAR-3
[10] = tested on: 786-0
[11] = tested on: SNB-75
[12] = tested on: M14
[13] = tested on: NCI-H522
[14] = tested on: OVCAR-4
[15] = tested on: HL-60
[16] = tested on: HT-29
[17] = tested on: NCI-H460
[18] = tested on: CAKI-1
[19] = tested on: NCI/ADR-RES
[20] = tested on: MDA-MB-435
[21] = tested on: BT-549
[22] = tested on: ACHN
[23] = tested on: HOP-92
[24] = tested on: PC-3
[25] = tested on: SN12C
[26] = tested on: SF-539
[27] = tested on: SF-295
[28] = tested on: DU-145
[29] = tested on: MCF7
[30] = tested on: UACC-62
[31] = tested on: MDA-N
[32] = tested on: Hs-578T
[33] = tested on: UO-31
[34] = tested on: HCT-116
[35] = tested on: SW-620
[36] = tested on: LOX IMVI
[37] = tested on: SK-MEL-28
[38] = tested on: TK-10
[39] = tested on: HCC 2998
[40] = tested on: NCI-H226
[41] = tested on: RXF 393
[42] = tested on: T47D
[43] = tested on: COLO 205
[44] = tested on: U-251
[45] = tested on: SK-MEL-5
[46] = tested on: A549
[47] = tested on: UACC-257
[48] = tested on: OVCAR-5
[49] = tested on: MDA-MB-231
[50] = tested on: IGROV-1
[51] = tested on: NCI-H23
[52] = tested on: RPMI-8226
[53] = tested on: KM12
[54] = tested on: SR
[55] = tested on: A498
[56] = tested on: HCT-15
[57] = tested on: CCRF-CEM
[58] = tested on: MOLT-4
[59] = tested on: K562

Measured: GI50

COC(=O)c1cc(-c2ccc3ccccc3c2)nc(O)c1C#N
inactive: [1] > 100 µM | [2] > 100 µM | [3] > 100 µM | [4] 71.4 µM | [5] > 100 µM | [6] > 100 µM | [7] > 100 µM | [8] > 100 µM | [9] > 100 µM | [10] > 100 µM | [11] > 100 µM | [12] > 100 µM | [13] > 100 µM | [14] > 100 µM | [15] 20.3 µM | [16] > 100 µM | [17] > 100 µM | [18] > 100 µM | [19] > 100 µM | [20] > 100 µM | [21] > 100 µM | [22] > 100 µM | [23] > 100 µM | [24] > 100 µM | [25] > 100 µM | [26] > 100 µM | [27] > 100 µM | [28] > 100 µM | [29] > 100 µM | [30] > 100 µM | [31] > 100 µM | [32] > 100 µM | [33] > 100 µM | [34] > 100 µM | [35] > 100 µM | [36] > 100 µM | [37] > 100 µM | [38] > 100 µM | [39] 17.1 µM | [40] > 100 µM | [41] > 100 µM | [42] > 100 µM | [43] > 100 µM | [44] > 100 µM | [45] > 100 µM | [46] > 100 µM | [47] > 100 µM | [48] > 100 µM | [49] > 100 µM | [50] > 100 µM | [51] > 100 µM | [52] > 100 µM | [53] > 100 µM | [54] > 100 µM | [55] > 100 µM
> 100 µM: [56]

CCCS(=O)(=O)Nc1ccc(Nc2c3ccccc3nc3ccccc23)c(OC)c1
1.35 µM: [56]
active: [57] 0.0475 µM | [1] 1.04 µM | [2] 1.08 µM | [3] 0.561 µM | [5] 0.853 µM | [10] 0.807 µM | [11] 1.04 µM | [12] 0.467 µM | [13] 0.38 µM | [15] 0.126 µM | [17] 0.0362 µM | [18] 0.4 µM | [58] 0.0211 µM | [22] 0.362 µM | [25] 0.127 µM | [27] 0.429 µM | [28] 0.271 µM | [29] 0.365 µM | [30] 0.695 µM | [33] 1.08 µM | [34] 0.929 µM | [36] 0.315 µM | [42] 0.902 µM | [44] 0.641 µM | [46] 0.43 µM | [51] 0.421 µM | [54] 0.0236 µM | [55] 0.904 µM
inactive: [4] 12.7 µM | [6] 2.86 µM | [7] 1.2 µM | [8] 2.08 µM | [9] 2.3 µM | [14] 7.62 µM | [16] 1.75 µM | [19] 3.95 µM | [20] 5.28 µM | [21] 2.37 µM | [23] 1.73 µM | [24] 3.88 µM | [26] 1.17 µM | [31] 4.16 µM | [32] 3.16 µM | [35] 2.08 µM | [38] 3.78 µM | [39] 2.1 µM | [40] 1.46 µM | [41] 5.19 µM | [43] 2.16 µM | [45] 2 µM | [47] 5.53 µM | [48] 8.63 µM | [49] 3.32 µM | [50] 1.31 µM | [53] 1.92 µM

CC(C)(C)OC(=O)NC1CCCCC1NC(=O)C(=O)NC1CCCCC1NC(=O)OC(C)(C)C (stereo not given)
> 100 µM: [56]
inactive: [57] > 100 µM | [1] > 100 µM | [2] 28.4 µM | [3] 19.3 µM | [4] > 100 µM | [5] 37.2 µM | [6] 59 µM | [7] > 100 µM | [8] 44.2 µM | [9] > 100 µM | [10] 34.7 µM | [12] > 100 µM | [13] 66.5 µM | [14] > 100 µM | [15] > 100 µM | [16] > 100 µM | [17] > 100 µM | [18] 43 µM | [19] > 100 µM | [58] > 100 µM | [20] > 100 µM | [21] 53.5 µM | [22] 39.1 µM | [23] 13.5 µM | [24] > 100 µM | [25] > 100 µM | [26] 45.4 µM | [27] 29.1 µM | [28] > 100 µM | [29] > 100 µM | [30] 24 µM | [31] > 100 µM | [32] 16.9 µM | [33] > 100 µM | [34] 78.2 µM | [35] > 100 µM | [59] > 100 µM | [36] > 100 µM | [37] > 100 µM | [38] 37.6 µM | [39] > 100 µM | [40] > 100 µM | [41] 9.46 µM | [42] > 100 µM | [43] > 100 µM | [44] 25.9 µM | [45] > 100 µM | [46] > 100 µM | [47] > 100 µM | [48] > 100 µM | [49] 27.2 µM | [50] > 100 µM | [51] > 100 µM | [52] > 100 µM | [53] > 100 µM | [54] > 100 µM | [55] 32.7 µM
